According to paper PMC8909594, “Direct Interaction of Mitochondrial Cytochrome c Oxidase with Thyroid Hormones: Evidence for Two Binding Sites” (Cells, 2022):
Several values for one entry are separate records, joined by “and”; a condition that tells them apart may be missing. Equal entries are not always repeated. Entries after “also recorded” stand apart in the source; their conditions may differ. Where two headings read alike, the source gives them in different places.

Legend:
[1] = molecular target: T1, solubilized cytochrome c oxidase (CcO) from bovine heart mitochondria (Bos taurus, UniProt P00396+P68530); test: Oxidase activity of solubilized CcO, oxygen consumption (Clark-type electrode); assay type: biochemical; settings: for Kd: read-out: Kc, dissociation constant of the DM-CcO complex
T1 construct: Cytochrome c oxidase (CcO) was purified from heart mitochondria of Bos taurus; from tissue; host or cells: bovine heart mitochondria
Description: Preparations. Cytochrome c oxidase (CcO) was purified from heart mitochondria of Bos taurus. […] CcO was isolated according to a modified method of Fowler et al. [21] described previously [22].

[2] = molecular target: solubilized CcO from mitochondria; settings: read-out: Kc (dissociation constant for DM), cited from earlier work
[3] = test system: T2, cytochrome c oxidase (CcO); test: Peroxidase activity of CcO (ferrocyanide peroxidation); assay type: biochemical, Bos taurus; settings: for rate of peroxidase reaction: 0.5 mM hormone, control 0.19 e−/s, error about 10%
T2 construct: Cytochrome c oxidase (CcO) was purified from heart mitochondria of Bos taurus; from tissue; host or cells: bovine heart mitochondria
Protocol: To obtain a redox buffer with Em ≈ 420 mV, equal amounts of ferri- and ferrocyanide were mixed. To facilitate the interaction of ferrocyanide with CcO, 0.2 μM cytochrome c was present.
Peroxidation of ferrocyanide (0.2 mM) was monitored in the presence of 0.6 μM CcO. […] Trace 1, black = control; trace 2, red = the experiment in the presence of 1 mM T4; trace 3, blue = 1 mM T4 added in the course of the experiment, as indicated.

[4] = test system: mitochondrial CcO; parameters: method as in PMID 8013649; settings: 0.2 μM enzyme; cited from earlier work
[5] = test system: T3, CcO in proteoliposomes; test: Ferrocytochrome c oxidation by CcO in proteoliposomes; assay type: biochemical, Bos taurus
T3 construct: Cytochrome c oxidase (CcO) was purified from heart mitochondria of Bos taurus; from tissue; host or cells: bovine heart mitochondria
Protocol: CcO reconstruction into phospholipid vesicles.
Cytochrome c was reduced beforehand by dithionite.
Figure 2 Inhibitory effect of thyroid hormones on the oxidase activity of the membrane-incorporated CcO. […] Proteoliposomes were added to the experimental medium up to 26 nM CcO. The oxidase reaction was initiated by addition of the respiratory substrate. Other details are as in Figure 1B,D. (D) T3-induced inhibition of ferrocytochrome c oxidation by CcO in proteoliposomes. […] Other conditions are as in panel (A) except that proteoliposomes were added to the medium up to 3.25 nM CcO and pre-incubated for 30 min before adding the respiratory substrate. […] Mitochondria were suspended in the experimental medium up to 0.8 mg of protein/mL. Other details are as in Figure 1B,D. (F) Inhibitory effect of T4 on CcO oxidase activity in SMP obtained from bovine heart mitochondria. The conditions were essentially as in panel (E) except that the CcO concentration was 20 nM.

[6] = test system: cytochrome c oxidase (electron transfer from heme a to heme a3); test: Level and kinetics of heme a / heme a3 reduction in CcO; settings: pH 8.0, 5 μM RuAm, 5 mM ascorbate
Protocol: The kinetics of spectral changes were monitored on spectrophotometer SLM Aminco DW-2000 (SLM Instruments, Urbana, IL, USA) in dual-wavelength mode.
The oxidase reaction was carried out using ascorbate (as an electron source) in combination with the redox mediators RuAm and TMPD. The reduction of CcO was monitored spectrophotometrically.
The total reduction level of hemes a and a3 was registered. […] The other conditions were as in panel (A) except that 0.1 mM TMPD was used instead of RuAm.

[7] = molecular target: T4, CcO in SMP obtained from bovine heart mitochondria (Bos taurus, UniProt P00396+P68530); test: CcO oxidase activity in bovine heart submitochondrial particles (SMP); assay type: biochemical
T4 construct: Then, CcO in the native mitochondrial membrane was investigated; from tissue; host or cells: bovine heart submitochondrial particles
Protocol: Preparation of bovine heart submitochondrial particles (SMP). The heavy fraction of bovine heart mitochondria was suspended in 40 mL of 0.3 M sucrose supplemented with 5 mM MgSO4, 1 mM succinate, 1 mM ATP and 10 mM Hepes, pH 8.0. […] Mitochondrial debris was removed by centrifugation for 12 min at 15,000 rpm (Beckman JA-20, Brea, CA, USA). SMP were precipitated from supernatant at 100,000 g for 1 h, washed by 0.3 M sucrose with 10 mM Hepes, pH 7.5 and precipitated as previously described. The final precipitate was suspended in a small volume of the same buffer and frozen. To determine the CcO concentration in the sample, a small amount of SMP was solubilized in 50 mM Hepes/Tris buffer, pH 7.6 containing 1% DM.

[8] = test system: T5, oxidized cytochrome c oxidase (CcO); test: Formation of CcO oxoferryl intermediates FI-607 and FII-580 with H2O2 (titration, stopped-flow); assay type: biochemical, Bos taurus
T5 construct: Cytochrome c oxidase (CcO) was purified from heart mitochondria of Bos taurus; from tissue; host or cells: bovine heart mitochondria
Protocol: Stopped-flow experiments were performed using a stopped-flow spectrophotometer (Applied Photophysics SX-20, Leatherhead, UK) operated in the diode array mode, using a 20-μL cell with a 1-cm optical pathway.
Oxoferryl intermediates’ formation was monitored using stopped-flow techniques. CcO in the basic medium, pH 8.1 supplemented with 0.1% DM, 0.05 mM ferricyanide and when necessary, T4 was rapidly mixed with an equal volume of the same buffer containing H2O2.
We carried out such a titration to evaluate the effects of thyroid hormones on the equilibrium of oxoferryl intermediates.
Figure 6 Effect of T4 on the formation of CcO oxoferryl intermediates during the reaction with H2O2. The reaction was followed using a diode array spectrophotometer. […] (A, B) Kinetics of the oxoferryl intermediates’ formation. […] (A) Control; (B) CcO was pre-incubated with 0.5 mM T4 until mixing.

[9] = test system: T6, xanthine oxidase from bovine milk; test: Superoxide formation by xanthine oxidase oxidizing hypoxanthine (test for superoxide dismutase activity); assay type: biochemical; settings: hypoxanthine 50 μM, XOx 0.015 units/mL; 500 μM T4; SOD 20 μg/mL
T6 construct: xanthine oxidase from bovine milk; purchased Sigma-Aldrich; host or cells: bovine milk
Description: The conditions were adjusted so that the rate of WST reduction was approximately the same as in panel (A).

[10] = test system: cytochrome c oxidase (CcO); test: Catalase activity of CcO (oxygen release from H2O2); settings: higher hormone concentration (curve 4, 1 mM)
Protocol: The catalase activity of CcO was detected by a Clark-type electrode in the presence of excess hydrogen peroxide, in 30 mM potassium-phosphate buffer, pH 7.1 supplemented with 2 mM EDTA and 0.05% DM, as described in [26].

[11] = molecular target: mitochondrial cytochrome c oxidase (CcO) (Bos taurus, UniProt P00426); test: Superoxide generation by CcO in excess H2O2 (WST-1 reduction)
Protocol: The reaction of superoxide generation catalyzed by CcO in the presence of excess hydrogen peroxide was assayed in the basic medium, pH 7.6 by the classic method [27], monitoring the superoxide dismutase-sensitive reduction of tetrazolium salts to formazan.
Addition of 0.4 µM T4 is indicated. CcO was added up to 0.5 μM to the experimental medium, supplemented with 0.1 mM WST-1. The reaction was initiated by addition of 4 mM H2O2 (indicated by the arrow). […] Conditions of the measurements are as in panel (A).

[12] = molecular target: CcO incorporated into azolectin vesicles (proteoliposomes) (Bos taurus, UniProt P00396+P68530); test: Oxidase activity of CcO in proteoliposomes, oxygen consumption
Protocol: First, the effect of thyroid hormones on CcO incorporated into azolectin vesicles was studied. The activity was assayed in the same way as in solution except for the absence of detergent and presence of protonophore in the medium (see Section 2).

For `CCCCCCCCCCCCO[C@@H]1O[C@H](CO)[C@@H](O[C@H]2O[C@H](CO)[C@@H](O)[C@H](O)[C@H]2O)[C@H](O)[C@H]1O` [DM, dodecyl-maltoside], the Kd ([1]; from competition with T3 (T3=0)) is given as ~1120 µM, the Kd ([1]; from competition with T4 (T4=0)) is given as ~1100 µM and the Kd ([2]; from study of CcO inhibition by Triton X-100) is given as 1200 µM. The Kd ([2]; from study of CcO inhibition by estradiol) was 1470 µM and the Kd ([2]; from study of CcO inhibition by testosterone) was 1300 µM.

In the case of `N[C@@H](Cc1cc(I)c(Oc2ccc(O)cc2)c(I)c1)C(=O)O` [T2, 3,5-diiodo-thyronine], the “rate of peroxidase reaction” value [3] is given as 0.21 e^−/s and the “concentration from which effects of T2 start” value [4] is given as 10^−7 M.

In the case of `N[C@@H](Cc1cc(I)c(Oc2ccc(O)c(I)c2)c(I)c1)C(=O)O` [T3, L-3,5,3′-triiodide-thyronine], the “time of enzyme activity after which inhibition develops” value ([5]; 0.5 mM T3 (~450 turnovers)) is reported as 10 s, the “decrease in the activity compared to the control” value ([5]; 0.5 mM T3, pre-incubation 30 min, 3.25 nM CcO) is reported as “approximately twofold decrease” and the “increase of steady-state level of heme a reduction over control” value (shortened to “increase … of heme a reduction over control”) ([6]; 1 mM hormone) is reported as ~ 75%. The “increase … of heme a reduction over control” value ([6]; 2 mM hormone) was ~ 115%.

In the case of `N[C@@H](Cc1cc(I)c(Oc2cc(I)c(O)c(I)c2)c(I)c1)C(=O)O` [T4, L-3,5,3′,5′tetraiodo-thyronine], the “decrease of the rate of oxygen consumption” value ([1]; […] T4, 20 nM CcO) is reported as “approximately two times”, the “extent of inhibition of enzyme activity” value ([1]; lowest tested DM concentrations (0.02% and 0.05%)) is reported as 70–80% and the Ki ([1]; oxygen consumption, pH 7.6, 25 °C, from linear dependence of Ki(app) on [DM] 0.4–10 mM, DM=0, read-out: true inhibition constant Ki (in the absence of DM)) is reported as ~100 µM and 100 µM. For the same compound, the Ki ([1]; solubilized enzyme, Figure 1C,E, read-out: Ki) was ~100 µM, the extent of inhibition [7] was “complete inhibition” and the Ki ([7]; 20 nM CcO) was 2200 ± 200 µM. For the same compound, the “rate of peroxidase reaction” value [3] was 0.22 e^−/s, the “effect on the rate of ferrocyanide peroxidation” value ([3]; 1 mM T4, 0.6 μM CcO, 4 mM H2O2) was “does not noticeably change; also recorded: complete resistance” and the “deviation of FI-607 (lower) and FII-580 (higher) concentration from control” value ([8]; 0.5 mM T4, 15 s after mixing) was “about 10%”. The “acceleration of formation of FII-580 (form 580)” value ([8]; 0.5 mM hormone) was 23% and 20–25%, the “decrease in the quasi-stationary concentration ratio [FI-607]/[FII-580] vs control” value ([8]; 0.5 mM hormone, titration of oxidized CcO with peroxide) was 15–25% and the “effect on the rate of dye (WST) reduction” value [9] was “does not affect the rate of dye reduction”. The “suppression of catalase activity” value [10] was 10–20%, the “increase … of heme a reduction over control” value ([6]; 1 mM hormone) was ~ 50% and the Ki [11] was 0.3 µM. For the same compound, the “drop of the rate of WST-1 reduction (superoxide production)” value ([11]; 0.4 μM T4) was “drops threefold” and the Ki [12] was 310 µM.

For “superoxide dismutase: superoxide dismutase from bovine erythrocytes, control blocking WST reduction”, the “effect on the rate of dye (WST) reduction” value [9] was “completely blocked”.
